Test results reported in patent publication US6346613B1, “Composition and method for enhancing paracellular transport across cell layers” (Elan Corporation, plc, priority 1997, dated 2002).
“And” between values parts separate entries of the source, which are not always exact repeats. Equal values may be shown once.

Columns and labels:
Caco-2 monolayers = assay: Transepithelial electrical resistance (TER) of Caco-2 monolayers on snapwells; format: cell-based, Human; parameters: unit not given beside the values; details: Experiment 1, per snapwell, treatment with lipofectamine + oligonucleotide
Procedure: All solutions were warmed to 37° C. before use.

[1] = Experiment 1, [3H]-mannitol, 90 minutes, Caco-2

Procedure for polarized Caco-2 cells: Human intestinal Caco-2 cells were grown using standard techniques well known to those skilled in the art. The cells were seeded onto polycarbonate filters (Costar Snapwells; diameter=12 mm; area=1.13 cm^2; pore size=0.4m) at a density of 0.5×10^6 cm^2. For antisense oligonucleotide studies, 18-25 day old cell monolayers were used which have transepithelial electrical resistance (TER) measurements in the range 200-400 cm^2.
All incubations were at 37° C. in 5% CO2 atmosphere. All solutions were warmed to 37° C. before use. The following procedure was carried out once a day over three days. After reading the TER, the cells were washed once and incubated in a reduced serum medium (RSM; Opti-MEM 1 with GlutaMax 1; Gibco-BRL) for 30 minutes. Meanwhile, the lipofectamine-oligonucleotide complex was allowed to form at room temperature. Lipofectamine (20 μl/snapwell; Gibco BRL CN. 18324-012) was mixed with occludin antisense DNA oligonucleotide, with occludin scrambled oligonucleotide or with water control in RSM.
The lipofectin:oligonucleotide complex was added to the apical surface of the snapwells and the cells were incubated for 2 hours. The apical and basolateral media were then replaced with normal medium (except on day 4). After the 2 hour incubation on day 3, transepithelial flux of ^3H-mannitol was measured.
Caco-2 cells were washed once in buffered Hank's balanced salt solution (bHBSS; Gibco CN.14065-031; supplemented with 0.011M glucose, 15 mM HEPES acid [3.575 g/l; Sigma CN.H3375], 10 mM HEPES base [2.603 g/l; Sigma CN. H1016]) and were incubated 30 minutes. The apical reservoir bHBSS was replaced with 1 ml buffered HBSS containing 1 μCi/ml of the hydrophilic marker ^3H-mannitol (New England Biolabs). […] The samples were added to 4 ml scintillation fluid and radioactivity for each vial counted on a scintillation counter.
Fully differentiated Caco-2 monolayers were grown as in Example 1. […] On day 4, [^3H]-mannitol was applied to the apical domain and flux was determined by measuring the radioactivity (cpm) transferred to the basolateral reservoir over 90 minutes as in Example 3. […]

Row | Substance | TER (Caco-2 monolayers; listed as Lipofectamine + Occludin Antisense) | increase in flux relative to no oligonucleotide (polarized Caco-2 cells; [1]) [fold] | increase in flux relative to occludin scrambled oligonucleotide (polarized Caco-2 cells; [1]) [fold] | mean increase in [3H]-mannitol flux relative to control scrambled sequence antisense DNA (polarized Caco-2 cells; Experiment 2 (FIG. 2), 500 μM, Caco-2 monolayers on snapwells) [fold] | TER (Caco-2 monolayers; listed as Lipofectamine + Scrambled Antisense)
1 | 5′ AAG AGG CCT GGA TGA CA 3′ (antisense AAGAGGCCTGGATGACA; chemistry not given here) [occludin antisense oligonucleotide] | 1260 and 1410 | 1.6 | 1.6 | 2.2 | 
2 | 5′ GCA AGT CAG GAC GTA GA 3′ (GCAAGTCAGGACGTAGA; chemistry not given here) [occludin scrambled oligonucleotide, reference compound] |  |  |  |  | 1280 and 1700
